Measurements reported in patent US8293462B2, “Method of preserving early mammalian embryos by vitrification” (Central Institute for Experimental Animals, priority 2005, dated 2012).

System: marmoset ES cells, cell line No. 40
Test: Survival of ES cell clumps after thaw, cell line No. 40
Assay type: cell-based, common marmoset (Callithrix jacchus)
Conditions: FIG. 1
Source text: As marmoset ES cells, two cell lines, i.e., No. 40 and No. 20, which were established by the Central Institute for Experimental Animals (Japan), were employed (Sasaki E. et al., 2005, Establishment of Novel Embryonic Stem Cell Lines Derived from the Common Marmoset (Callithrix jacchus), Stem Cells. (in press)). The cell clumps separated via trypsin treatment were recovered with an egg-sampling pipette and used in the preservation experiment.
In the method of preservation by vitrification according to the present invention, […] PB1, 10% propylene glycol, 30% ethylene glycol, 20% Percoll®(t, and 0.3 M sucrose were used. In thaw, the SPB1 solution comprising PB1 and 0.3 M sucrose was used.
In preservation of the control embryos by vitrification (Fujioka T. et al., Int. J. Dev. Biol. 48: 1149-1154), a DAP213 solution comprising PB1, 2 mol of DMSO, 1 mol of acetamide, and 3 mol of propylene glycol was used. In slow freezing (Reubinoff B. E. et al., Human Reprod. Vol. 16, No. 10, 2187-2194), the SF solution comprising 10% DMSO in FCS was used.
Subsequently, the cell clumps were introduced into a preservation tube (Nunc 375353) with 5 μl of P10, followed by cooling at 0° C. for 1 minute. Thereafter, 95 μl of PEPeS, which had been cooled to 0° C., was introduced into the tube. […]

Structure (SMILES): CC(O)CO (centres unmarked) [propylene glycol]
- survival rate after thaw compared with control that had not been preserved (pretreatment solution PB1 + 5% propylene glycol, 4 days after initiation of culture): significantly lower
- survival rate after thaw compared with control that had not been preserved (pretreatment solution PB1 + 15% propylene glycol, 4 days of culture): did not differ from the control embryos
